In US8952024B2, “Herbicidal pyrimidone derivatives” (E I du Pont de Nemours and Company, priority 2009, dated 2015):

Tests used:
Test in all cases: Test B pre-/postemergence plant response
Assay type in all cases: in vivo
[1] = tested on: wheat (Triticum aestivum); settings: for Wheat plant response rating (0 to 100 scale): 0 is no effect, 13 to 15 days
Method in brief: (§1)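 Greenhouse herbicide screen. Pre- and postemergence (1- to 4-leaf) spray of compound in solvent/surfactant mixture; loam–sand soil for pre, peat/vermiculite medium for post. Visual control rating 0–100 at 13 to 15 days after treatment.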

[2] = tested on: morningglory (Ipomoea coccinea); settings: for Morningglory plant response rating (0 to 100 scale): 0 is no effect, 13 to 15 days
Method in brief: as §1

[3] = tested on: velvetleaf (Abutilon theophrasti); settings: for Velvetleaf plant response rating (0 to 100 scale): 0 is no effect, 13 to 15 days
Method in brief: as §1

[4] = tested on: Italian ryegrass (Lolium multiflorum); settings: for Ryegrass, Italian plant response rating (0 to 100 scale): 0 is no effect, 13 to 15 days
Method in brief: as §1

kochia (Kochia scoparia) = settings: for Kochia plant response rating (0 to 100 scale): 0 is no effect, 13 to 15 days
Method in brief: as §1

[5] = tested on: large crabgrass (Digitaria sanguinalis); settings: for Crabgrass, Large plant response rating (0 to 100 scale): 0 is no effect, 13 to 15 days
Method in brief: as §1

[6] = tested on: cocklebur (Xanthium strumarium); settings: for Cocklebur plant response rating (0 to 100 scale): 0 is no effect, 13 to 15 days
Method in brief: as §1

[7] = tested on: bermudagrass (Cynodon dactylon); settings: for Bermudagrass plant response rating (0 to 100 scale): 0 is no effect, 13 to 15 days
Method in brief: as §1

soybean (Glycine max) = settings: for Soybean plant response rating (0 to 100 scale): 62 g ai/ha, 0 is no effect, 13 to 15 days
Method in brief: as §1

[8] = tested on: woolly cupgrass (Eriochloa villosa); settings: for Cupgrass, Woolly plant response rating (0 to 100 scale): 0 is no effect, 13 to 15 days
Method in brief: as §1

[9] = tested on: downy bromegrass (Bromus tectorum); settings: for Bromegrass, Downy plant response rating (0 to 100 scale): 0 is no effect, 13 to 15 days
Method in brief: as §1

[10] = tested on: yellow nutsedge (Cyperus esculentus); settings: for Nutsedge, Yellow plant response rating (0 to 100 scale): 0 is no effect, 13 to 15 days
Method in brief: as §1

[11] = 31 g ai/ha, postemergence, scale 0 to 100, 0 is no effect, 100 is complete control
[12] = 62 g ai/ha, postemergence, 100 is complete control
[13] = Postemergence, 125 g ai/ha, visual rating after 13 to 15 days, scale 0 (no effect) to 100 (complete control)
[14] = Postemergence, 250 g ai/ha, scale 0 to 100 (0 no effect, 100 complete control)
[15] = Preemergence, 31 g ai/ha, scale 0 to 100 (0 no effect, 100 complete control)
[16] = Preemergence, 62 g ai/ha, scale 0 to 100 (0 no effect, 100 complete control)
[17] = Preemergence, 125 g ai/ha, scale 0 to 100, 0 no effect, 100 complete control
[18] = 250 g ai/ha, Preemergence, 0 to 100 scale
[19] = postemergence, 100 is complete control

CCCCc1ncc(C(=O)C2=C(O)CCCC2=O)c(=O)n1-c1ccc(C)cc1 [Compound 67]
Plant response rating, Wheat [1, 11]: 5
Wheat plant response rating (0 to 100 scale) [1, 12]: 5
Plant response rating, Wheat [1, 13]: 25
Plant response rating, Wheat [1, 14]: 25
Plant response rating, Wheat [1, 15]: 0
Plant response rating, Wheat [1, 16]: 0
Plant response rating, Wheat [1, 17]: 0
Plant response rating, Morningglory [2, 11]: 80
Morningglory plant response rating (0 to 100 scale) [2, 12]: 90
Plant response rating, Morningglory [2, 13]: 95
Plant response rating, Morningglory [2, 14]: 100
Plant response rating, Morningglory [2, 15]: 0
Plant response rating, Morningglory [2, 16]: 15
Plant response rating, Morningglory [2, 17]: 15
Plant response rating, Velvetleaf [3, 11]: 90
Velvetleaf plant response rating (0 to 100 scale) [3, 12]: 95
Plant response rating, Velvetleaf [3, 13]: 98
Plant response rating, Velvetleaf [3, 14]: 100
Plant response rating, Velvetleaf [3, 15]: 75
Plant response rating, Velvetleaf [3, 16]: 85
Plant response rating, Velvetleaf [3, 17]: 90
Plant response rating, Ryegrass, Italian [4, 11]: 0
Ryegrass, Italian plant response rating (0 to 100 scale) [4, 12]: 5
Plant response rating, Ryegrass, Italian [4, 13]: 5
Plant response rating, Ryegrass, Italian [4, 14]: 5
Plant response rating, Ryegrass, Italian [4, 15]: 0
Plant response rating, Ryegrass, Italian [4, 16]: 0
Plant response rating, Ryegrass, Italian [4, 17]: 0
Plant response rating, Kochia (kochia (Kochia scoparia); [11]): 75
Kochia plant response rating (0 to 100 scale) (kochia (Kochia scoparia); [12]): 80
Plant response rating, Kochia (kochia (Kochia scoparia); [18]): 85
Plant response rating, Kochia (kochia (Kochia scoparia); [13]): 85
Plant response rating, Kochia (kochia (Kochia scoparia); [14]): 85
Plant response rating, Kochia (kochia (Kochia scoparia); [15]): 70
Plant response rating, Kochia (kochia (Kochia scoparia); [16]): 70
Plant response rating, Kochia (kochia (Kochia scoparia); [17]): 80
Plant response rating, Crabgrass, Large [5, 11]: 75
Crabgrass, Large plant response rating (0 to 100 scale) [5, 12]: 80
Plant response rating, Crabgrass, Large [5, 18]: 100
Plant response rating, Crabgrass, Large [5, 13]: 90
Plant response rating, Crabgrass, Large [5, 14]: 95
Plant response rating, Crabgrass, Large [5, 15]: 40
Plant response rating, Crabgrass, Large [5, 16]: 65
Plant response rating, Crabgrass, Large [5, 17]: 98
Plant response rating, Cocklebur [6, 11]: 75
Cocklebur plant response rating (0 to 100 scale) [6, 12]: 75
Plant response rating, Cocklebur [6, 18]: 20
Plant response rating, Cocklebur [6, 13]: 90
Plant response rating, Cocklebur [6, 14]: 90
Plant response rating, Cocklebur [6, 15]: 0
Plant response rating, Cocklebur [6, 16]: 0
Plant response rating, Cocklebur [6, 17]: 15
Plant response rating, Bermudagrass [7, 11]: 35
Bermudagrass plant response rating (0 to 100 scale) [7, 12]: 70
Plant response rating, Bermudagrass [7, 18]: 100
Plant response rating, Bermudagrass [7, 13]: 70
Plant response rating, Bermudagrass [7, 14]: 85
Plant response rating, Bermudagrass [7, 15]: 45
Plant response rating, Bermudagrass [7, 16]: 90
Plant response rating, Bermudagrass [7, 17]: 95
Plant response rating, Soybean (soybean (Glycine max); [11]): 80
Soybean plant response rating (0 to 100 scale) (soybean (Glycine max); [19]): 90
Plant response rating, Soybean (soybean (Glycine max); [13]): 98
Plant response rating, Soybean (soybean (Glycine max); [14]): 98
Plant response rating, Cupgrass, Woolly [8, 11]: 60
Cupgrass, Woolly plant response rating (0 to 100 scale) [8, 12]: 70
Plant response rating, Cupgrass, Woolly [8, 18]: 10
Plant response rating, Cupgrass, Woolly [8, 13]: 70
Plant response rating, Cupgrass, Woolly [8, 14]: 75
Plant response rating, Cupgrass, Woolly [8, 15]: 0
Plant response rating, Cupgrass, Woolly [8, 16]: 0
Plant response rating, Cupgrass, Woolly [8, 17]: 0
Plant response rating, Bromegrass, Downy [9, 11]: 0
Bromegrass, Downy plant response rating (0 to 100 scale) [9, 12]: 0
Plant response rating, Bromegrass, Downy [9, 18]: 0
Plant response rating, Bromegrass, Downy [9, 13]: 0
Plant response rating, Bromegrass, Downy [9, 14]: 5
Plant response rating, Bromegrass, Downy [9, 15]: 0
Plant response rating, Bromegrass, Downy [9, 16]: 0
Plant response rating, Bromegrass, Downy [9, 17]: 0
Plant response rating, Nutsedge, Yellow [10, 11]: 60
Nutsedge, Yellow plant response rating (0 to 100 scale) [10, 12]: 65
Plant response rating, Nutsedge, Yellow [10, 13]: 65
Plant response rating, Nutsedge, Yellow [10, 14]: 70
Plant response rating, Nutsedge, Yellow [10, 15]: 0
Plant response rating, Nutsedge, Yellow [10, 16]: 65
Plant response rating, Nutsedge, Yellow [10, 17]: 65

O=C1CCCC(O)=C1C(=O)c1cnc(-c2ccccc2Br)n(-c2ccccc2)c1=O [Compound 71]
Plant response rating, Wheat [1, 11]: 0
Wheat plant response rating (0 to 100 scale) [1, 12]: 0
Plant response rating, Wheat [1, 13]: 0
Plant response rating, Wheat [1, 14]: 5
Plant response rating, Morningglory [2, 11]: 65
Morningglory plant response rating (0 to 100 scale) [2, 12]: 65
Plant response rating, Morningglory [2, 13]: 75
Plant response rating, Morningglory [2, 14]: 80
Plant response rating, Velvetleaf [3, 11]: 75
Velvetleaf plant response rating (0 to 100 scale) [3, 12]: 85
Plant response rating, Velvetleaf [3, 13]: 90
Plant response rating, Velvetleaf [3, 14]: 95
Plant response rating, Ryegrass, Italian [4, 11]: 0
Ryegrass, Italian plant response rating (0 to 100 scale) [4, 12]: 0
Plant response rating, Ryegrass, Italian [4, 13]: 0
Plant response rating, Ryegrass, Italian [4, 14]: 5
Plant response rating, Kochia (kochia (Kochia scoparia); [11]): 0
Kochia plant response rating (0 to 100 scale) (kochia (Kochia scoparia); [12]): 0
Plant response rating, Kochia (kochia (Kochia scoparia); [13]): 25
Plant response rating, Kochia (kochia (Kochia scoparia); [14]): 65
Plant response rating, Crabgrass, Large [5, 11]: 65
Crabgrass, Large plant response rating (0 to 100 scale) [5, 12]: 75
Plant response rating, Crabgrass, Large [5, 13]: 80
Plant response rating, Crabgrass, Large [5, 14]: 95
Plant response rating, Cocklebur [6, 11]: 65
Cocklebur plant response rating (0 to 100 scale) [6, 12]: 65
Plant response rating, Cocklebur [6, 13]: 95
Plant response rating, Cocklebur [6, 14]: 95
Plant response rating, Bermudagrass [7, 11]: 65
Bermudagrass plant response rating (0 to 100 scale) [7, 12]: 75
Plant response rating, Bermudagrass [7, 13]: 80
Plant response rating, Bermudagrass [7, 14]: 98
Plant response rating, Soybean (soybean (Glycine max); [11]): 65
Soybean plant response rating (0 to 100 scale) (soybean (Glycine max); [19]): 70
Plant response rating, Soybean (soybean (Glycine max); [13]): 95
Plant response rating, Soybean (soybean (Glycine max); [14]): 98
Plant response rating, Cupgrass, Woolly [8, 11]: 10
Cupgrass, Woolly plant response rating (0 to 100 scale) [8, 12]: 45
Plant response rating, Cupgrass, Woolly [8, 13]: 85
Plant response rating, Cupgrass, Woolly [8, 14]: 100
Plant response rating, Bromegrass, Downy [9, 11]: 0
Bromegrass, Downy plant response rating (0 to 100 scale) [9, 12]: 5
Plant response rating, Bromegrass, Downy [9, 13]: 10
Plant response rating, Bromegrass, Downy [9, 14]: 30
Plant response rating, Nutsedge, Yellow [10, 11]: 10
Nutsedge, Yellow plant response rating (0 to 100 scale) [10, 12]: 10
Plant response rating, Nutsedge, Yellow [10, 13]: 10
Plant response rating, Nutsedge, Yellow [10, 14]: 25
